According to PubChem BioAssay (NCI):
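Exposure lasted 48 hours, with cells grown in 96-well plates and compounds tested at five concentrations. At the TGI there is no net growth.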 *1 amine or outer side, *2 acyl side, *3 side chain or, on linkers, in order; H or OH if unused. Where a SMILES comes first, the peptide text is derived from it. [ ]: non-standard residue; d: D form. The star is where a group is joined. X31 = CC(=O)N(C)SCC(N[*:1])C(=O)[*:2]; Fmoc = O=C(OCC1c2ccccc2-c2ccccc21)*; For = O=C*

Columns and labels:
Assay in all cases: growth of human tumour cells (NCI), 48 h
A549 NSCLC = test system: A549 NSCLC
ACHN renal = test system: ACHN renal
HCC-2998 colon = test system: HCC-2998 colon
HCT-15 colon = test system: HCT-15 colon
HL-60(TB) leukemia = test system: HL-60(TB) leukemia
IGROV1 ovarian = test system: IGROV1 ovarian
LOX IMVI melanoma = test system: LOX IMVI melanoma
MALME-3M melanoma = test system: MALME-3M melanoma
MDA-MB-435 = test system: MDA-MB-435
OVCAR-5 ovarian = test system: OVCAR-5 ovarian
T-47D breast = test system: T-47D breast
U251 CNS = test system: U251 CNS
UACC-257 melanoma = test system: UACC-257 melanoma
UACC-62 melanoma = test system: UACC-62 melanoma

SMILES	TGI (A549 NSCLC)	TGI (ACHN renal)	TGI (HCC-2998 colon)	TGI (HCT-15 colon)	TGI (HL-60(TB) leukemia)	TGI (IGROV1 ovarian)	TGI (LOX IMVI melanoma)	TGI (MALME-3M melanoma)	TGI (MDA-MB-435)	TGI (OVCAR-5 ovarian)	TGI (T-47D breast)	TGI (U251 CNS)	TGI (UACC-257 melanoma)	TGI (UACC-62 melanoma)
COc1cccc(C(=O)N[C@@H]2[C@H](O)[C@@H](CO)O[C@H]2n2cnc3c(N)ncnc32)c1	> 100 µM	> 100 µM	> 100 µM	> 100 µM	> 100 µM	> 100 µM	> 100 µM	> 100 µM	> 100 µM	> 100 µM	> 100 µM	> 100 µM	> 100 µM	> 100 µM
N#CCN(Cc1ccccc1)[C@@H]1CCC[C@]1(O)C#Cc1ccc2c(c1)OCO2	34.1 µM	36 µM	31.5 µM	66.7 µM	45.1 µM	39.7 µM	30.9 µM	34.3 µM	42.1 µM	33.5 µM	69.5 µM	33.9 µM	37.9 µM	37.3 µM
C=C(CC)C[C@@H]1C[C@]2(C(=O)OC)c3[nH]c4ccccc4c3CCN2C1=O	32.4 µM	76 µM	34.1 µM	34.5 µM	82.5 µM	58 µM	33.5 µM	72.5 µM	43.7 µM	56 µM	> 100 µM	40.8 µM	41.9 µM	36.2 µM
C=CC[C@H]1[C@H](O[Si](C)(C)C(C)(C)C)C=CC(=O)[C@@H]1CC(=O)OCC	23.9 µM	27.2 µM	25.5 µM	26.6 µM	24.8 µM	32.8 µM	32 µM	25.9 µM	26.4 µM	27.1 µM	24.7 µM	27.8 µM	17.9 µM	24.1 µM
CN1CCCC(C(=O)OCC(=O)C2(O)CCC3C4CCC5=CC(=O)CCC5(C)C4C(O)CC32C)C1 (stereo unspecified)	> 67.6 µM	34.8 µM	22.1 µM	44.1 µM	11 µM	> 60.1 µM	30.6 µM	33.2 µM	33.4 µM	52.2 µM	34.5 µM	16 µM	38.2 µM	37.7 µM
CC(=O)N(C)SCC(NC(=O)C(Cc1ccccc1)NC(=O)OCC1c2ccccc2-c2ccccc21)C(=O)NC(Cc1ccccc1)C(=O)NC(Cc1cn(C=O)c2ccccc12)C(=O)NC(CCCCNC(=O)OCC1c2ccccc2-c2ccccc21)C(=O)NC(C(=O)NC(CSN(C)C(C)=O)C(=O)NC(C(N)=O)C(C)O)C(C)O (stereo unspecified) (Fmoc-F[X31]FW(For)K(Fmoc)T[X31]T-NH2; configuration not given here)	> 100 µM	> 100 µM	> 100 µM	> 100 µM	> 100 µM	> 100 µM	> 100 µM	> 100 µM	> 100 µM	> 100 µM	> 100 µM	> 100 µM	> 100 µM	> 100 µM
CC(C)OP(=O)(OC(C)C)C(Nc1cccc(C(F)(F)F)c1)c1ccccc1 (stereo unspecified)	> 100 µM	> 100 µM	> 100 µM	> 100 µM	> 100 µM	> 100 µM	> 100 µM	> 100 µM	> 100 µM	> 100 µM	> 100 µM	> 100 µM	> 100 µM	> 100 µM
CC1=C(C)C(=O)C(C2=C(C3=CC(=O)C(C)=C(C)C3=O)C(=O)c3ccccc3C2=O)=CC1=O	17.7 µM	6.71 µM	16.3 µM	5.53 µM	1.11 µM	7.14 µM	5.94 µM	2.8 µM	3.05 µM	32.2 µM	12.4 µM	12.6 µM	4.22 µM	4.62 µM
Cc1cn2c(/C=C3/C(=O)Nc4ccccc43)c(C)nc2s1	50.7 µM	> 100 µM	19.5 µM	> 100 µM	2.53 µM	> 100 µM	70.4 µM	> 100 µM	0.619 µM	> 100 µM	38.5 µM	10.9 µM	> 100 µM	> 100 µM
